Reference: US12509474B2, “Inhibitors of complement factors and uses thereof” (Annexon, Inc., priority 2020, dated 2025)
Where a name gives a salt, the structure may show the parent alone.

molecular target: T1, human C1s protein (Homo sapiens, UniProt P09871); assay: C1s enzymatic assay (hydrolysis of YLGR-Rh110-dPro); assay type: biochemical; conditions: substrate YLGR-Rh110-dPro 20 μM, 15 min pre-incubation, 60 min RT, fluorescence, read-out: hC1s pIC50 (converted)
T1 construct: A104
T1 sequence (P09871 16-688): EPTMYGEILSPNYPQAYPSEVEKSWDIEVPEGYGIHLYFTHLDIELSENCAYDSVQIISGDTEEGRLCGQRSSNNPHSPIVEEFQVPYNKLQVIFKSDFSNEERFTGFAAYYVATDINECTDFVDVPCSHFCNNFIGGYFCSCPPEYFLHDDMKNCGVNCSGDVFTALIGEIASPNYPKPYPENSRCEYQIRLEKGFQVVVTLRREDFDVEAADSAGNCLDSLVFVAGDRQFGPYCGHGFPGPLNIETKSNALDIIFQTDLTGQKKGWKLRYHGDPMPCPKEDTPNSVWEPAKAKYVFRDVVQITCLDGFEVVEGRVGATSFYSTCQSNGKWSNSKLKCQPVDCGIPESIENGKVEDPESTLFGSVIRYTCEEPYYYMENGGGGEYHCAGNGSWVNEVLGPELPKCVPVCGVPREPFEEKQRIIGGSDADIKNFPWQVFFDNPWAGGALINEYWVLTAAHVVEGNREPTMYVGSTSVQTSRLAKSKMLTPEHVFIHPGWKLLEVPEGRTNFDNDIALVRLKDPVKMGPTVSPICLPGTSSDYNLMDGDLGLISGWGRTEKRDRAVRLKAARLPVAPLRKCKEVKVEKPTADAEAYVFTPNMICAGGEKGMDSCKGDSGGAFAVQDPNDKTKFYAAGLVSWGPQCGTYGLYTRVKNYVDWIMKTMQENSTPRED
Procedure: Compound Testing in the C1s Enzymatic Assay
The enzyme cleaves the substrate with the release of Rh110 which is highly fluorescent. C1s inhibitors prevent the hydrolysis of the substrate thus resulting in a decrease of the signal.
On the day of the experiment 0.1 mg/mL BSA (Sigma, B4287) is added fresh to the buffer. The test item stock solutions are serially diluted 1:3 or 1:4 or 1:5 with DMSO, 11-point curves, in a 384-well compound plate. Nafamostat concentration curve is always included in the assay plate as a reference control.
The high controls are prepared dispensing in 0.25 μL DMSO in column 23, rows AH or AP and low controls with 0.25 μL of 0.1 M Nafamostat. […] The YLGR-Rh110-dPro substrate is prepared as 2× of the final assay concentration of 20 μM. 1/well of 2× enzyme solution is dispensed and pre-incubated for 15 min with the compounds. The enzymatic reaction is then started with 5 μL/well of the 2× substrate solution.

Compared with `COc1ccc(B(O)O)c(F)c1-c1ccc2c(N)nnc(C)c2c1` [Example 34, [3-(1-amino-4-methylphthalazin-6-yl)-2-fluoro-4-methoxyphenyl]boronic Acid Formic Acid Salt], `Cc1nnc(N)c2ccc(-c3c(C(F)(F)F)ccc(B(O)O)c3F)cc12` [Example 68, [3-(1-amino-4-methylphthalazin-6-yl)-2-fluoro-4-(trifluoromethyl)phenyl]boronic Acid] is 130-fold higher in IC50: 1.02 nM for the first, 129 nM for the second.

Compared with `COc1cc(C(F)F)c(B(O)O)cc1-c1ccc2c(N)nnc(C)c2c1` [Example 35, [5-(1-amino-4-methylphthalazin-6-yl)-2-(difluoromethyl)-4-methoxyphenyl]boronic Acid], `COc1cc(Cl)c(B(O)O)cc1-c1ccc2c(N)nnc(C)c2c1` [Example 50, [5-(1-amino-4-methylphthalazin-6-yl)-2-chloro-4-methoxyphenyl]boronic Acid] is 3-fold lower in IC50: 2.69 nM for the first, 0.891 nM for the second.

`Cc1nnc(N)c2ccc(-c3cc(B(O)O)cc(F)c3C#N)cc12` [Example 36, [3-(1-amino-4-methylphthalazin-6-yl)-4-cyano-5-fluorophenyl]boronic Acid Formic Acid Salt] and `COc1c(F)cc(B(O)O)cc1-c1ccc2c(N)nnc(C)c2c1` [Example 57, [3-(1-amino-4-methylphthalazin-6-yl)-5-fluoro-4-methoxyphenyl]boronic Acid Trifluoroacetic Acid Salt] are within 1.5-fold of each other in IC50: 1.91 nM for the first, 1.48 nM for the second.

`COc1cc(C(F)(F)F)c(B(O)O)cc1-c1ccc2c(N)nnc(C)c2c1` [Example 37, [5-(1-amino-4-methylphthalazin-6-yl)-4-methoxy-2-(trifluoromethyl)phenyl]boronic Acid Formic Acid Salt] and `COc1cc(C(F)(F)F)c(-c2ccc3c(N)nnc(C)c3c2)cc1B(O)O` [Example 63, [5-(1-amino-4-methylphthalazin-6-yl)-2-methoxy-4-(trifluoromethyl)phenyl]boronic Acid] are within 1.5-fold of each other in IC50: 1.58 nM for the first, 2.14 nM for the second.

`Cc1nnc(N)c2ccc(-c3cc(B(O)O)cc(C(F)(F)F)c3)cc12` [Example 38] and `Cc1nnc(N)c2ccc(-c3cc(B(O)O)ccc3C(F)(F)F)cc12` [Example 39, [3-(1-amino-4-methylphthalazin-6-yl)-4-(trifluoromethyl)phenyl]boronic Acid Formic Acid Salt] are within 1.5-fold of each other in IC50: 1.05 nM for the first, 1.32 nM for the second.

Compared with `Cc1nnc(N)c2ccc(-c3cc(B(O)O)cc(P(C)(C)=O)c3)cc12` [Example 40, [3-(1-amino-4-methylphthalazin-6-yl)-5-dimethylphosphorylphenyl]boronic Acid Formic Acid Salt], `Cc1nnc(N)c2ccc(-c3cc(P(C)(C)=O)cc(B(O)O)c3F)cc12` [Example 47, [3-(1-amino-4-methylphthalazin-6-yl)-5-dimethylphosphoryl-2-fluorophenyl]boronic Acid Formic Acid Salt] is 74-fold higher in IC50: 1.02 nM for the first, 75.9 nM for the second.

`Cc1cc(C#N)c(-c2ccc3c(N)nnc(C)c3c2)cc1B(O)O` [Example 41, [5-(1-amino-4-methylphthalazin-6-yl)-4-cyano-2-methylphenyl]boronic Acid] and `COc1c(C)cc(B(O)O)cc1-c1ccc2c(N)nnc(C)c2c1` [Example 42, [3-(1-amino-4-methylphthalazin-6-yl)-4-methoxy-5-methylphenyl]boronic Acid Formic Acid Salt] are within 1.5-fold of each other in IC50: 1.2 nM for the first, 1.38 nM for the second.

`COc1cc(C2CC2)c(B(O)O)cc1-c1ccc2c(N)nnc(C)c2c1` [Example 43, [5-(1-amino-4-methylphthalazin-6-yl)-2-cyclopropyl-4-methoxyphenyl]boronic Acid] and `COc1cc(OC(F)(F)F)c(B(O)O)cc1-c1ccc2c(N)nnc(C)c2c1` [Example 44, [5-(1-amino-4-methylphthalazin-6-yl)-4-methoxy-2-(trifluoromethoxy)phenyl]boronic Acid] are within 1.5-fold of each other in IC50: 1 nM for the first, 0.813 nM for the second.

First: COc1c(C)cc(-c2ccc3c(N)nnc(C)c3c2)cc1B(O)O [Example 45, [5-(1-amino-4-methylphthalazin-6-yl)-2-methoxy-3-methylphenyl]boronic Acid]
Second: COc1c(-c2ccc3c(N)nnc(C)c3c2)cc(B(O)O)cc1C(F)(F)F [Example 49, [3-(1-amino-4-methylphthalazin-6-yl)-4-methoxy-5-(trifluoromethyl)phenyl]boronic Acid]
The IC50 of the first is 3.4-fold lower: 0.562 nM for the first, 1.91 nM for the second.

Going from `COc1cc2c(cc1-c1ccc3c(N)cnnc3c1)B(O)OCC2` [Example 46, 7-(1-hydroxy-6-methoxy-3,4-dihydro-2,1-benzoxazonin-7-yl)cinnolin-4-amine Trifluoroacetic Acid Salt] to `COc1c(-c2ccc3c(N)cnnc3c2)cc(B(O)O)cc1C1CCOCC1` [Example 58, [3-(4-aminocinnolin-7-yl)-4-methoxy-5-(oxan-4-yl)phenyl]boronic Acid], the IC50 falls from 7.41 nM to 3.39 nM (2.2-fold).

Compared with `COc1ccc(B(O)O)c(F)c1-c1ccc2c(N)cnnc2c1` [Example 48, [3-(4-aminocinnolin-7-yl)-2-fluoro-4-methoxyphenyl]boronic Acid], `COc1ccc(B(O)O)cc1-c1cc(C)c2c(N)cnnc2c1` [Example 67, [3-(4-amino-5-methylcinnolin-7-yl)-4-methoxyphenyl]boronic Acid] is 4.2-fold higher in IC50: 4.07 nM for the first, 17 nM for the second.

`Nc1cnnc2cc(-c3cc(B(O)O)ccc3OC3CCOCC3)ccc12` [Example 51, [3-(4-aminocinnolin-7-yl)-4-(oxan-4-yloxy)phenyl]boronic Acid Formic Acid Salt] and `Nc1cnnc2cc(-c3cc(B(O)O)ccc3OC[C@@H]3CC(F)(F)CN3)ccc12` [Example 79, [3-(4-aminocinnolin-7-yl)-4-[[(2S)-4,4-difluoropyrrolidin-2-yl]methoxy]phenyl]boronic acid] are within 1.5-fold of each other in IC50: 0.724 nM for the first, 0.891 nM for the second.

Compared with `COc1ccc(B(O)O)cc1-c1cc(F)c2c(N)nnc(C)c2c1` [Example 55], `Cc1nnc(N)c2ccc(-c3cc(B(O)O)ccc3P(C)(C)=O)cc12` [Example 62, [3-(1-amino-4-methylphthalazin-6-yl)-4-dimethylphosphorylphenyl]boronic Acid Formic Acid Salt] is 4.4-fold higher in IC50: 6.61 nM for the first, 28.8 nM for the second.

First: Cc1nnc(N)c2ccc(-c3ccc4c(c3)B(O)OC(=O)C4)cc12 [Example 56, Trifluoroacetic Acid Salt]
Second: Cc1nnc(N)c2ccc(-c3ccc4c(c3)B(O)OCC4(F)F)cc12 [Example 66, 6-(4,4-difluoro-1-hydroxy-3H-2,1-benzoxazonin-7-yl)-4-methylphthalazin-1-amine]
The IC50 of the first is 3-fold lower: 5.89 nM for the first, 17.4 nM for the second.

Compared with `Cc1nnc(N)c2ccc(-c3cc(B(O)O)ccc3NC(=O)CC(C)C)cc12` [Example 59, [3-(1-amino-4-methylphthalazin-6-yl)-4-(3-methylbutanoylamino)phenyl]boronic Acid Formic Acid Salt], `Cc1nnc(N)c2ccc(-c3cc(B(O)O)ccc3NC(=O)CCC(C)C)cc12` [Example 61, [3-(1-amino-4-methylphthalazin-6-yl)-4-(4-methylpentanoylamino)phenyl]boronic Acid Formic Acid Salt] is 2.1-fold higher in IC50: 3.24 nM for the first, 6.76 nM for the second.

Compared with `CC(C)CC(=O)Nc1ccc(B(O)O)cc1-c1ccc2c(N)cnnc2c1` [Example 64, [3-(4-aminocinnolin-7-yl)-4-(3-methylbutanamido)phenyl]boronic Acid Formic Acid Salt], `CC(C)CCC(=O)Nc1ccc(B(O)O)cc1-c1ccc2c(N)cnnc2c1` [Example 65, [3-(4-aminocinnolin-7-yl)-4-(4-methylpentanamido)phenyl]boronic Acid Formic Acid Salt] is 3.8-fold higher in IC50: 15.1 nM for the first, 57.5 nM for the second.

Compared with `Cc1nnc(N)c2ccc(-c3ccc(NC(=O)c4ccccc4)c(B(O)O)c3)cc12` [Example 70, [5-(1-amino-4-methylphthalazin-6-yl)-2-benzamidophenyl]boronic Acid], `Cc1nnc(N)c2ccc(-c3ccc(C(F)(F)F)c(B(O)O)c3)cc12` [Example 74, [5-(1-amino-4-methylphthalazin-6-yl)-2-(trifluoromethyl)phenyl]boronic Acid] is 1.9-fold lower in IC50: 3.8 nM for the first, 1.95 nM for the second.

`Cc1nnc(N)c2ccc(-c3cnc(C(F)(F)F)c(B(O)O)c3)cc12` [Example 71, [5-(1-amino-4-methylphthalazin-6-yl)-2-(trifluoromethyl)pyridin-3-yl]boronic Acid] and `CC(C)NC(=O)COc1ccc(B(O)O)cc1-c1ccc2c(N)cnnc2c1` [Example 76, [3-(4-aminocinnolin-7-yl)-4-[2-oxo-2-(propan-2-ylamino)ethoxy]phenyl]boronic Acid] are within 1.5-fold of each other in IC50: 2.95 nM for the first, 2.88 nM for the second.

In the case of `CNc1cnnc2cc(-c3cc(B(O)O)ccc3OC)ccc12` [Example 75, [4-methoxy-3-[4-(methylamino)cinnolin-7-yl]phenyl]boronic Acid], the IC50 is reported as 224 nM.
